Results as given in US12419887B2, “Transitioning patients treated for pulmonary arterial hypertension to selexipag” (ACTELION PHARMACEUTICALS LTD, priority 2019, dated 2025).

Key:
Type in all cases: in vivo, human
[1] = system: patients being treated for pulmonary arterial hypertension; assay: Safety: selexipag discontinuation and adverse events leading to discontinuation
Text: (§1) In this example, the effectiveness of transitioning patients from a non-selexipag PPA to selexipag was investigated. Patients were followed for up to 18 months and data were collected at the time of initiation, enrollment, and approximately quarterly post-enrollment. Eligible patients were aged ≥18 years and either newly initiated on selexipag at the time of enrollment or were already receiving selexipag and have a documented titration regimen.
AEs known to be associated with the selexipag mechanism of action were only reported if they were serious, led to selexipag discontinuation, or reflected an unusual pattern of severity.
Safety data were collected only for the period during which patients were enrolled. The median total duration of selexipag treatment on study was 13.7 months (IQR: 9.1-17.8 months) for all patients: 13.8 months (IQR: 9.2-17.8 months) for patients in the inhaled/oral group and 13.4 months (IQR: 6.8-15.9 months) for patients in the parenteral group.

[2] = system: patients being treated for pulmonary arterial hypertension transitioned from a non-selexipag PPA; assay: Change in WHO/NYHA functional class (FC) from baseline after transition to selexipag; settings: for patients with worsened FC / patients with improved FC: all transitioned patients
Text: as §1
(§2) “Transitioned patients” were defined as patients who were (i) taking a non-selexipag PPA for ≥30 days at the time of selexipag initiation who stopped the initial agent ≤7 days before selexipag initiation; or (ii) continued taking the initial, non-selexipag PPA when they initiated selexipag and gradually transitioned off that agent.
(§3) Assessments performed closest to selexipag initiation were considered to be “baseline.” Data at 6 and 12 months post-baseline were as follows (i) the window for the 6-month measurements was >0 months and <9 months; (ii) the window for the 12-month measurements was ≥9 months and <16 months; and (iii) the assessment closest to the 6- or 12-month time point, respectively, was used.

[3] = system: patients being treated for pulmonary arterial hypertension transitioned from a non-selexipag PPA; assay: Change from baseline in 6-minute walk distance (6MWD) after transition to selexipag
Text: as §1, §2, §3

[4] = system: patients being treated for pulmonary arterial hypertension transitioned from a non-selexipag PPA; assay: Change from baseline in assessed risk category after transition to selexipag
Text: as §3
Risk categories were assigned. Seven variables were used: World Health Organization or New York Heart Association functional class (FC), 6-minute walk distance (6MWD), N-terminal prohormone of brain natriuretic peptide (NT-proBNP), brain natriuretic peptide (BNP), and hemodynamic parameters, including right atrial pressure, cardiac index, and mixed venous oxygen saturation. If both NT-proBNP and BNP were available, the risk classification of each value was averaged together and the mean was used in the risk categorization. Thresholds from the 2015 European Society of Cardiology/European Respiratory Society Guidelines were applied to assign a risk score for each available variable: 1=low risk, 2=intermediate risk, and 3=high risk. The risk score from all available variables was then averaged. The resulting number was rounded to the nearest integer to produce the patient's individual risk category: 1=low risk, 2=intermediate risk, and 3=high risk

[5] = transitioned from parenteral non-selexipag PPA, 6 months
[6] = transitioned from oral/inhaled non-selexipag PPA, 6 months
[7] = transitioned from oral/inhaled non-selexipag PPA, 12 months
[8] = transitioned from parenteral non-selexipag PPA, 12 months

CC(C)N(CCCCOCC(=O)NS(C)(=O)=O)c1cnc(-c2ccccc2)c(-c2ccccc2)n1 [selexipag, 2-{4-[(5,6-diphenylpyrazin-2-yl)(propan-2-yl)amino]butoxy}-N-(methanesulfonyl)acetamide]
AE leading to selexipag discontinuation: Acute respiratory failure, % ([1]; All Patients (N = 56)): (1.8) %
AE leading to selexipag discontinuation: Arthralgia, % ([1]; All Patients (N = 56)): (1.8) %
AE leading to selexipag discontinuation: Cardiac arrest, % ([1]; All Patients (N = 56)): (1.8) %
AE leading to selexipag discontinuation: Cardiac disorders, % ([1]; All Patients (N = 56)): (7.1) %
AE leading to selexipag discontinuation: Cardiac failure congestive, % ([1]; All Patients (N = 56)): (1.8) %
AE leading to selexipag discontinuation: Fluid overload, % ([1]; All Patients (N = 56)): (1.8) %
AE leading to selexipag discontinuation: Headache, % ([1]; All Patients (N = 56)): (1.8) %
AE leading to selexipag discontinuation: Investigations, % (Right ventricular systolic pressure) ([1]; All Patients (N = 56)): (1.8) %
AE leading to selexipag discontinuation: Investigations, n (Right ventricular systolic pressure) ([1]; All Patients (N = 56)): 1 n
AE leading to selexipag discontinuation: Musculoskeletal and connective tissue disorders, % ([1]; All Patients (N = 56)): (1.8) %
AE leading to selexipag discontinuation: Nervous system disorders, % ([1]; All Patients (N = 56)): (1.8) %
AE leading to selexipag discontinuation: Respiratory failure, % ([1]; All Patients (N = 56)): (1.8) %
AE leading to selexipag discontinuation: Respiratory, thoracic and mediastinal disorders, % ([1]; All Patients (N = 56)): (8.9) %
AE leading to selexipag discontinuation: Right ventricular failure, % ([1]; All Patients (N = 56)): (1.8) %
AE leading to selexipag discontinuation: Right ventricular systolic pressure increased, % ([1]; All Patients (N = 56)): (1.8) %
AE leading to selexipag discontinuation: Worsening pulmonary hypertension, % ([1]; All Patients (N = 56)): (5.4) %
AE leading to selexipag discontinuation: Acute respiratory failure, % ([1]; Inhaled/Oral (n = 36)): 2.8%
AE leading to selexipag discontinuation: Arthralgia, % ([1]; Inhaled/Oral (n = 36)): 2.8%
AE leading to selexipag discontinuation: Cardiac arrest, % ([1]; Inhaled/Oral (n = 36)): 2.8%
AE leading to selexipag discontinuation: Cardiac disorders, % ([1]; Inhaled/Oral (n = 36)): 5.6%
AE leading to selexipag discontinuation: Cardiac failure congestive, % ([1]; Inhaled/Oral (n = 36)): 2.8%
AE leading to selexipag discontinuation: Headache, % ([1]; Inhaled/Oral (n = 36)): 2.8%
AE leading to selexipag discontinuation: Investigations, n (Right ventricular systolic pressure) ([1]; Inhaled/Oral (n = 36)): 0 n
AE leading to selexipag discontinuation: Musculoskeletal and connective tissue disorders, % ([1]; Inhaled/Oral (n = 36)): 2.8%
AE leading to selexipag discontinuation: Nervous system disorders, % ([1]; Inhaled/Oral (n = 36)): 2.8%
AE leading to selexipag discontinuation: Patients with at least one AE, % ([1]; Inhaled/Oral (n = 36)): 16.7%
AE leading to selexipag discontinuation: Respiratory failure, % ([1]; Inhaled/Oral (n = 36)): 2.8%
AE leading to selexipag discontinuation: Respiratory, thoracic and mediastinal disorders, % ([1]; Inhaled/Oral (n = 36)): 5.6%
AE leading to selexipag discontinuation: Cardiac disorders, % ([1]; Parenteral (n = 20)): (10.0) %
AE leading to selexipag discontinuation: Fluid overload, % ([1]; Parenteral (n = 20)): (5.0) %
AE leading to selexipag discontinuation: Investigations, % (Right ventricular systolic pressure) ([1]; Parenteral (n = 20)): (5.0) %
AE leading to selexipag discontinuation: Investigations, n (Right ventricular systolic pressure) ([1]; Parenteral (n = 20)): 1 n
AE leading to selexipag discontinuation: Respiratory, thoracic and mediastinal disorders, % ([1]; Parenteral (n = 20)): (15.0) %
AE leading to selexipag discontinuation: Right ventricular failure, % ([1]; Parenteral (n = 20)): (5.0) %
AE leading to selexipag discontinuation: Right ventricular systolic pressure increased, % ([1]; Parenteral (n = 20)): (5.0) %
AE leading to selexipag discontinuation: Worsening pulmonary hypertension, % ([1]; Parenteral (n = 20)): (15.0) %
patients who discontinued selexipag ([1]; non-transitioned patients (65 of 194)): 33.5%
patients who discontinued selexipag ([1]; transitioned patients (16 of 56)): 28.6%
disease course in the majority of patients as indicated by FC, 6MWD, and risk status ([2]; 12 months after transitioning, regardless of type of prior non-selexipag PPA): unchanged or improved disease
patients with worsened FC ([2]; 6 months vs baseline): none
patients with improved FC ([2]; 6 months vs baseline, data for 46% of patients): 27%
patients with worsened FC ([2]; 12 months vs baseline): 10%
patients with improved FC ([2]; 12 months vs baseline, data for 70% of patients): 21%
FC versus baseline ([2]; transitioned patients, at 6 and 12 months): maintained in the majority of transitioned patients
6MWD versus baseline ([3]; all patients, 12 months): modest increase in 6MWD
6MWD versus baseline ([3]; transitioned from oral/inhaled PPA, 6 months): increased 6MWD
median 6MWD versus baseline [3, 5]: decreased median 6MWD from baseline
patients with improved risk status [4, 6]: 21%
patients with maintained risk status [4, 6]: 63%
patients with worsened risk status [4, 6]: 17%
patients with improved FC (in the risk status paragraph) [4, 7]: 24%
patients with maintained risk status [4, 7]: 61%
patients with worsened FC (in the risk status paragraph) [4, 7]: 15%
patients with improved risk status [4, 5]: 27%
patients with maintained or improved risk status [4, 5]: 67%
patients with maintained risk status [4, 5]: 40%
patients with worsened risk status [4, 5]: 33%
patients with improved risk status [4, 8]: 29%
patients with maintained or improved risk status [4, 8]: 86%
patients with maintained risk status [4, 8]: 57%
patients with worsened risk status [4, 8]: 14%
